In PMC11968506, “Toxicokinetics and analytical toxicology of the phenmetrazine-derived new psychoactive substance 3,4-methylenedioxyphenmetrazine studied by means of in vitro systems” (Archives of Toxicology, 2025) one finds inhibition and CYP1A2 metabolite formation data, which are given here for one molecule.

The structures appear in SMILES notation.

In general, inhibition refers to the drop in the measured response relative to a control, in per cent. Low readings indicate little suppression, high ones strong suppression.

This data set deals with T1, CYP1A2 (Homo sapiens, UniProt P05177).
T1 sequence (P05177 1-516): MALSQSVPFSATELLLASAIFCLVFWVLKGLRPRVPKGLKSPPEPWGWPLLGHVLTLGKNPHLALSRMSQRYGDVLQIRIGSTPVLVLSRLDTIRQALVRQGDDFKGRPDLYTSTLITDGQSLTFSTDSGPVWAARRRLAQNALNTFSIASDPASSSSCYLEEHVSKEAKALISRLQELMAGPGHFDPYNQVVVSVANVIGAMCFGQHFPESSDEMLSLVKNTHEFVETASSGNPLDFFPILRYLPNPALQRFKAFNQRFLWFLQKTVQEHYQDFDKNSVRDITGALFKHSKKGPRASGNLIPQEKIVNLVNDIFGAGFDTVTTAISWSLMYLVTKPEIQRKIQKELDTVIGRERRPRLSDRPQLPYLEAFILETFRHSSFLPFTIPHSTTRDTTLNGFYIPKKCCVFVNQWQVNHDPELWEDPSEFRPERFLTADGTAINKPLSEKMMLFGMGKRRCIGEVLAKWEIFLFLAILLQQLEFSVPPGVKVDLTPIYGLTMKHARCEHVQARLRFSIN
In words: CYP inhibition cocktail assay in pHLM, CYP1A2 (phenacetin). The procedure:
A modified dual-cocktail based method (Dinger et al. [2014b]) was used. Substrate cocktail A consisted of 8.9 µM dextromethorphan (CYP2D6), 86 µM testosterone (CYP3A4), 3.5 µM diclofenac (CYP2C9), and 12 µM phenacetin (CYP1A2). Substrate cocktail B included 30 µM bupropion (CYP2B6), 2 µM amodiaquine (CYP2C8) and 21 µM omeprazole (CYP2C19). Substrate concentrations were near their respective Michaelis–Menten constant (Km) values (Dinger et al. [2014a]) and all concentrations are final. Enzyme inhibition was investigated using a positive control, a test group, a control group, an interference group, and a negative control. In the test group, specific inhibitors were replaced by MDPM (20 µM). Instead of inhibitors, phosphate buffer was used in the control group. Enzymes were replaced with phosphate buffer in the negative control group. The interference group was incubated like the control group, but the reaction was stopped with 20 µM MDPM in acetonitrile, also containing 2.5 µM trimipramine-d3. All groups were incubated with a NADPH-regenerating system, consisting of 5 mM isocitrate, 2 U/mL isocitrate dehydrogenase, 5 mM Mg^2+, and 1.2 mM NADP^+. Further, substrate cocktail A or B, 90 mM phosphate buffer (pH 7.4), and 200 U/mL superoxide dismutase were added to each group. […] All groups were preincubated for 10 min at 37 °C. […] Enzyme inhibition was evaluated by metabolite formation. […]

Regarding `CC1NCCOC1c1ccc2c(c1)OCO2` (centres unmarked) [MDPM, 2-(1,3-benzodioxol-5-yl)-3-methylmorpholine], where the note is “human, pooled human liver microsomes (pHLM), pH 7.4, probe phenacetin (12 µM)”, the inhibition at 15 min, 20 µM stood at 39%. Moreover, the CYP1A2 metabolite formation (inhibitor 20 µM, phenacetin 12 µM, pHLM 0.4 mg/mL, 15 min, control without inhibitor = 100%) came to 61%.
